# Measurements reported in patent publication US20120016124A1, “SEROTONIN REUPTAKE INHIBITORS” (Baylor University, priority 2007, published 2012).
# pKi: −log10 of the molar value. Like-named read-outs stand apart in the source and are kept apart here.
# Legend:
# [1] = molecular target: human serotonin transporter (SERT) (Homo sapiens, UniProt P31645); experiment: NIH-PDSP transporter binding assay, SERT (3H-Citalopram); conditions: for mean % inhibition SERT: Table 4, N=4 determinations, significant inhibition >50%, negative = stimulation of binding; for affinity for SERT: in words, compounds 1b through 7b of Tables 4 and 5
# Source text: (§1) Biological Evaluation of selected compounds was done through the National Institutes of Health Psychoactive Drug Screening Program (NIH-PDSP). Biological evaluation of the synthesized molecules consisted of: (a) Neurotransmitter uptake assays for the human serotonin transporter (SERT), (b) Binding assays for the serotonin receptor 5-HT1A, (c) Binding assays for the serotonin receptor 5-HT2A, and (d) Comparison of the biological data obtained for the synthesized molecules with that of currently used psychotherapeutics.
# (§2) All binding assays were carried out with an incubation time of 60 minutes at room temperature. All binding assays were performed in a similar manner, although the buffers used differ from assay to assay.
# The assay buffer H contained 50 mM Tris-HCl, […], and 5 mM KCl, at a pH of 7.4. For the peptide receptor binding assay, filters were pre-soaked for 7 days in 0.3% PEI. To perform the assay, a 96-well plate was set up as follows:
# (§3) For the 3H-ligands 1-2 nM final concentration of radioligand was used. For 125I-radioligands, 0.05-0.1 nM final concentration was used. The following components were pipetted in the following order: binding buffer, radioligand, cold unknown ligand, cold reference ligand, and membranes. The wells were incubated at room temperature for 60 minutes. At the end of the incubation, the samples were harvested onto pre-soaked (0.3% polyethyleneimine) GF/C filters using a 96-well harvester. They were then washed with 3 quick washes using ice-cold harvest buffer. The filters were removed and air dried overnight. Samples were counted in a 96-well counter using 100 μl of scintillant/well. The Ki value of the reference compound was calculated using the LIGAND Program (Munson and Rodbard, 1980). The percent inhibition was calculated using the following formula: […]
# [2] = molecular target: T1, serotonin receptor 5-HT1A (Homo sapiens, UniProt P08908); experiment: NIH-PDSP binding assay, 5-HT1A (3H-8-OH-DPAT); conditions: for mean % inhibition 5-HT1A: Table 4, N=4 determinations, significant inhibition >50%, negative = stimulation of binding; for Ki: Table 5, determined only for % inhibition >50%
# T1 sequence (P08908 1-422): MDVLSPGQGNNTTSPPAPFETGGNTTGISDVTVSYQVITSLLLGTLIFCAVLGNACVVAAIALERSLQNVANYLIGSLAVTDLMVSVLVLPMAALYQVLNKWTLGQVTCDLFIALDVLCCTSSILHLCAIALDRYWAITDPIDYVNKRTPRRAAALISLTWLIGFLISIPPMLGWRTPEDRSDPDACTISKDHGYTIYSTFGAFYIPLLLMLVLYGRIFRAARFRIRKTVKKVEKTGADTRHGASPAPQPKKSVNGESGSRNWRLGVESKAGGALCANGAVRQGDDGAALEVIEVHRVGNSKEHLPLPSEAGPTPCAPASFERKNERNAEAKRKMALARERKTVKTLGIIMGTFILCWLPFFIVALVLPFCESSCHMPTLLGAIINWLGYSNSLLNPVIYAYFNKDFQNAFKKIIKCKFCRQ
# Source text: as §1, §2
# (§4) Table 2 below gives the (1) radioligand; (2) assay buffer; (3) unlabelled reference ligand; and (4) references to the commonly-known procedures which were used.
# (§5) The assay buffer A was made up of 50 mM Tris-Cl, 0.1 mM EDTA, and 10 mM MgCl2, at a pH of 7.4. To perform the assay, a 96-well plate was set up as follows:
# as §3
# [3] = molecular target: serotonin receptor 5-HT2A (Homo sapiens, UniProt P28223); experiment: NIH-PDSP binding assay, 5-HT2A (3H-ketanserin); conditions: for pKi: — = No significant inhibition; for mean % inhibition 5-HT2A: Table 4, N=4 determinations, significant inhibition >50%, negative = stimulation of binding; for Ki: Table 5, determined only for % inhibition >50%
# Source text: as §1, §2, §4, §5, §3
# SERT = SERT (Homo sapiens, UniProt P31645); conditions: reference compounds, Orjales, cited from earlier work; for pKi: et. al., 2003
# 5-HT2A = 5-HT2A (Homo sapiens, UniProt P28223); conditions: cited from earlier work
# 5HT1A, 5HT2A, SERT = experiment: Preliminary Analysis of Biological Data (NIH-PDSP binding profile); conditions: in words; compounds 1b through 7b of Tables 4 and 5
# Source text: as §1
# Ten (10) of the sixteen (16) compounds synthesized were biologically evaluated. Compounds 10b, 11b and 12b were previously evaluated for their serotonin uptake ability as described in Example 5. For screening purposes, compounds 1b through 7b were analyzed for their affinity towards the serotonin 5-HT1A receptor as well as their affinity towards the 5-HT2A receptor and the SERT. Data in […] represent mean % inhibition (N=4 determinations) for compound tested at receptor subtypes. Significant inhibition is considered >50%. In cases where negative inhibition (−) is seen, this represents a stimulation of binding. Occasionally, compounds at high concentrations will non-specifically increase binding. Ki values were determined only for compounds with % inhibition>50%.
# [4] = Table 8, Homologues Type II (Aminopropane Derivatives)
# [5] = Table 7, Homologues Type I (Aminoethane Derivatives)
# [6] = Table 7, Homologues Type I (Aminoethane Derivatives), — = No significant inhibition
# SERT, sequence (P31645 whole entry, species assumed): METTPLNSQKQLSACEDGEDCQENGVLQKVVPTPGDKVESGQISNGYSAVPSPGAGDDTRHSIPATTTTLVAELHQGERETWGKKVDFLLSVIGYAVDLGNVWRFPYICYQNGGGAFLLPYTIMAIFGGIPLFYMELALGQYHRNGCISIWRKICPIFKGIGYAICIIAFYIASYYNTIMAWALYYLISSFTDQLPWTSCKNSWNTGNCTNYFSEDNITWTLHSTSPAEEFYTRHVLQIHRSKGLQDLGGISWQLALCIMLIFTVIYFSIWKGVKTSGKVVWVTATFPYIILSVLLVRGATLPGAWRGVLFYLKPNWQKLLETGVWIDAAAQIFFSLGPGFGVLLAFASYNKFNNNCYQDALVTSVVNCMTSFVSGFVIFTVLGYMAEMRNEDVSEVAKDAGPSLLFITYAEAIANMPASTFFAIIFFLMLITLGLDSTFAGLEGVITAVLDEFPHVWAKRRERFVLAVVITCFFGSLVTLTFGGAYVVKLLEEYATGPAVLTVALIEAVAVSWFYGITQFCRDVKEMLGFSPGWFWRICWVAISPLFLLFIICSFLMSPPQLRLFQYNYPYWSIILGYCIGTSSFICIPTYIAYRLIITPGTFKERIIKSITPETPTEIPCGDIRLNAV
# human serotonin transporter (SERT), sequence (P31645 whole entry): as the sequence (P31645 whole entry, species assumed) above
# serotonin receptor 5-HT2A, sequence (P28223 whole entry): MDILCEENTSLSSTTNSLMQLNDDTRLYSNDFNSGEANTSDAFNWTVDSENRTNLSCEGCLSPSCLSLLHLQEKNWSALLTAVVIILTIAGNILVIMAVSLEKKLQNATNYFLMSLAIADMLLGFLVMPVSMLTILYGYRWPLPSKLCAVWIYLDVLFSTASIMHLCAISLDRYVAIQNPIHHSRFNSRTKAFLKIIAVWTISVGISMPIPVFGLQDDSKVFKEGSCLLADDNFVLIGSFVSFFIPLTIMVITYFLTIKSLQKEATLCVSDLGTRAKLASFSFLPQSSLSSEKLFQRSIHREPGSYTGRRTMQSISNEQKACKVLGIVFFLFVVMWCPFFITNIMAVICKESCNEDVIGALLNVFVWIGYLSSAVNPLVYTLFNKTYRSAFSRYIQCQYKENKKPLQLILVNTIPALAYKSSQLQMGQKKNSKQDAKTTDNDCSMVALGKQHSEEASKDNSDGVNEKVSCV
# 5-HT2A, sequence (P28223 whole entry, species assumed): as the sequence (P28223 whole entry) above
SMILES,"pKi [1, 4]","pKi [2, 4]","pKi [3, 4]",further results
Fc1ccc2c(C3CCN(CCC(Oc4ccc(C(F)(F)F)cc4)c4ccccc4)CC3)noc2c1 (stereo not shown) [Compound 31b],6.14,6.38,7.63,–
O=C(CCCN1CCN(CCC(Oc2ccc(C(F)(F)F)cc2)c2ccccc2)CC1)c1ccc(F)cc1 (stereo not shown) [Compound 33b],6.14,5.30,6.39,–
COc1ccccc1N1CCN(CCC(Oc2ccc(F)cc2)c2ccccc2)CC1 (stereo not shown) [Compound 22b],5.61,8.40,6.12,–
FC(F)(F)c1ccc(OC(CCN2CCN(c3ncccn3)CC2)c2ccccc2)cc1 (stereo not shown) [Compound 25b],5.17,6.36,5.75,–
Fc1ccc(OC(CCN2CCC(c3noc4cc(F)ccc34)CC2)c2ccccc2)cc1 (stereo not shown) [Compound 30b],5.77,8.07,6.40,–
O=C(c1ccc(F)cc1)C1CCN(CCC(Oc2ccc(F)cc2)c2ccccc2)CC1 (stereo not shown) [Compound 28b],5.19,6.63,7.16,–
Fc1ccc2c(C3CCN(CC(Oc4ccc(C(F)(F)F)cc4)c4ccccc4)CC3)noc2c1 (stereo not shown) [Compound 13b],–,–,–,"pKi [1, 5]: 5.78; pKi [2, 6]: 5.70; pKi [3, 5]: < 5.00"
CCCN(CCC)C1CCc2cccc(O)c2C1 (stereo not shown) [Compound 8-OH-DPAT],–,–,–,"Ki (SERT; Table 5, et al. 2003): > 1000 nM; pKi (SERT; Table 7): < 6.00; pKi (SERT; Table 8): < 6.00; Ki (5-HT2A): > 1000 nM"
FC(F)(F)c1ccc(OC(CN2CCN(c3cccc(Cl)c3)CC2)c2ccccc2)cc1 (stereo not shown) [Compound 3b],–,–,–,"pKi [1, 5]: 5.31; pKi [2, 6]: 6.19"
FC(F)(F)c1ccc(OC(CCN2CCN(c3cccc(Cl)c3)CC2)c2ccccc2)cc1 (stereo not shown) [Compound 19b],6.45,6.51,5.87,–
Fc1ccc(OC(CCN2CCN(c3cccc(Cl)c3)CC2)c2ccccc2)cc1 (stereo not shown) [Compound 18b],6.54,7.96,7.03,–
Fc1ccc(OC(CCN2CCN(c3cccc(C(F)(F)F)c3)CC2)c2ccccc2)cc1 (stereo not shown) [Compound 20b],6.48,7.70,6.13,–
CN1CCN(CC(Oc2ccc(C(F)(F)F)cc2)c2ccccc2)CC1 (stereo not shown) [Compound 9b],–,–,–,"pKi [1, 5]: 5.44; pKi [3, 5]: 6.39"
CN1CCN(CCC(Oc2ccc(F)cc2)c2ccccc2)CC1 (stereo not shown) [Compound 26b],5.54,< 5.00,5.88,–
COc1ccccc1N1CCN(CC(Oc2ccc(C(F)(F)F)cc2)c2ccccc2)CC1 (stereo not shown) [Compound 5b],–,–,–,"pKi [1, 5]: ≤ 5.00; pKi [2, 6]: 7.66; pKi [3, 5]: < 5.00"
FC(F)(F)c1ccc(OC(CN2CCN(c3cccc(C(F)(F)F)c3)CC2)c2ccccc2)cc1 (stereo not shown) [Compound 4b],–,–,–,"pKi [1, 5]: 5.35; pKi [2, 6]: 5.84"

SMILES,"pKi [1, 4]","pKi [2, 4]","pKi [3, 4]",further results
FC(F)(F)c1ccc(OC(CCN2CCN(c3ccccc3)CC2)c2ccccc2)cc1 (stereo not shown) [Compound 2b],–,–,–,"mean % inhibition SERT [1]: 67.0%; Ki ([1]; Table 5, determined only for % inhibition >50%): 1870 nM; affinity for SERT [1]: low affinity; dual activity towards the 5-HT2A receptor and the SERT (5HT1A, 5HT2A, SERT): desired dual activity towards the 5-HT2A receptor and the SERT, although low; mean % inhibition 5-HT1A [2]: 91.0%; Ki [2]: 716 nM; mean % inhibition 5-HT2A [3]: 81.0%; Ki [3]: 195 nM"
Fc1ccc(OC(CN2CCN(c3ccccc3)CC2)c2ccccc2)cc1 (stereo not shown) [Compound 1],–,–,–,mean % inhibition SERT [1]: 12.0%; mean % inhibition 5-HT1A [2]: 98.0%; Ki [2]: 258 nM; mean % inhibition 5-HT2A [3]: 61.0%; Ki [3]: 3490 nM; melting point: 80 to 82 °C
Fc1ccc(OC(CCN2CCN(c3ncccn3)CC2)c2ccccc2)cc1 (stereo not shown) [Compound 24b],≤ 5.00,6.10,6.07,–
O=C(CCCN1CCN(CC(Oc2ccc(F)cc2)c2ccccc2)CC1)c1ccc(F)cc1 (stereo not shown) [Compound 14b],–,–,–,"pKi [1, 5]: 5.95; pKi [2, 6]: 5.93; pKi [3, 5]: ≤ 5.00"
O=C(CCCN1CCN(CCC(Oc2ccc(F)cc2)c2ccccc2)CC1)c1ccc(F)cc1 (stereo not shown) [Compound 32b],5.87,5.58,6.38,–
Fc1ccc(OC(CCN2CCN(c3ccccc3)CC2)c2ccccc2)cc1 (stereo not shown) [Compound 16b],5.95,8.05,7.12,mean % inhibition SERT [1]: 62.0%; mean % inhibition 5-HT1A [2]: 100.0%; mean % inhibition 5-HT2A [3]: 96.0%
CN1CCN(CCC(Oc2ccc(C(F)(F)F)cc2)c2ccccc2)CC1 (stereo not shown) [Compound 27b],5.15,5.02,5.76,–
Fc1ccc(OC(CN2CCN(c3ccccc3)CC2)c2ccccc2)cc1 (stereo not shown) [Compound 1b],–,–,–,"pKi [1, 5]: < 5.00; affinity for SERT [1]: low affinity; dual activity towards the 5-HT2A receptor and the SERT (5HT1A, 5HT2A, SERT): desired dual activity towards the 5-HT2A receptor and the SERT, although low; pKi [2, 6]: 7.00; pKi [3, 5]: 5.95"
"FC(F)(F)c1ccc(OC(CCN2CCN(c3ccccc3)CC2)c2ccccc2)cc1 (single isomer, unassigned) [Compound 17b]",6.12,6.50,6.22,–
FC(F)(F)c1ccc(OC(CN2CCN(c3cccc(Cl)c3)CC2)c2ccccc2)cc1 (stereo not shown) [Compound 3],–,–,–,mean % inhibition SERT [1]: 22.0%; mean % inhibition 5-HT1A [2]: 71.0%; Ki [2]: 712 nM; mean % inhibition 5-HT2A [3]: 17.0%
FC(F)(F)c1ccc(OC(CN2CCN(c3ccccc3)CC2)c2ccccc2)cc1 (stereo not shown) [Compound 2b],–,–,–,"pKi [1, 5]: < 5.00; pKi [2, 6]: 6.41"
FC(F)(F)c1ccc(OC(CCN2CCN(c3cccc(C(F)(F)F)c3)CC2)c2ccccc2)cc1 (stereo not shown) [Compound 21b],5.88,6.71,–,–
COc1ccccc1N1CCN(CCC(Oc2ccc(C(F)(F)F)cc2)c2ccccc2)CC1 (stereo not shown) [Compound 23b],5.66,7.38,5.85,–
O=C(c1ccc(F)cc1)C1CCN(CCC(Oc2ccc(C(F)(F)F)cc2)c2ccccc2)CC1 (stereo not shown) [Compound 29b],5.91,6.52,7.13,–
O=C(CCCN1CCN(CC(Oc2ccc(C(F)(F)F)cc2)c2ccccc2)CC1)c1ccc(F)cc1 (stereo not shown) [Compound 15b],–,–,–,"pKi [1, 5]: 5.86; pKi [2, 6]: 5.56; pKi [3, 5]: 6.80"
